Laboratory results reported in paper PMC9279378, “Mode of action of fluopyram in plant-parasitic nematodes” (Scientific Reports, 2022).

Columns and labels:
Conditions in all cases: pH 7.2; 20 µM decylubiquinone, 100 µM DCPIP, 0.33% succinate, 1 µM antimycin, 4% DMSO
[1] = biological target: T1, C. elegans SDH (mitochondrial complex II) (Caenorhabditis elegans, UniProt O62215+P41956+Q09545); experiment: succinate:ubiquinone reductase assay, DCPIP reduction at […] nm, mitochondrial protein; type: biochemical
T1 construct: gene sdhb-1; native complex II in mitochondrial preparation; wild-type strain N2 named for cultures, not explicitly for the mitochondria; with Succinate dehydrogenase [ubiquinone] flavoprotein subunit, mitochondrial

[2] = biological target: T2, SDH (mitochondrial complex II) of rat (Rattus norvegicus, UniProt P21913+Q641Z9+Q6PCT8)
T2 construct: gene Sdhb

[3] = biological target: T3, SDH (mitochondrial complex II) of earthworm; experiment: succinate:ubiquinone reductase assay, DCPIP reduction at […] nm, mitochondrial protein; type: biochemical, Eisenia andrei
T3 construct: gene SDHB; native complex II in mitochondrial preparation from earthworm; with Succinate dehydrogenase [ubiquinone] flavoprotein subunit, mitochondrial

T1 sequence (Q09545 36-298): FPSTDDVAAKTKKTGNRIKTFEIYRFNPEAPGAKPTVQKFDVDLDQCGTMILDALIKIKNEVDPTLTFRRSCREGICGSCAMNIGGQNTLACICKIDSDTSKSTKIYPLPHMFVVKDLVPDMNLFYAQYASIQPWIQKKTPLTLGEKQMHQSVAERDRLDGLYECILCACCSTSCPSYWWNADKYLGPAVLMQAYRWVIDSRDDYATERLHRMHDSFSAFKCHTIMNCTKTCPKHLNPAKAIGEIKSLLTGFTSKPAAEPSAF
T1 sequence (P41956 31-182): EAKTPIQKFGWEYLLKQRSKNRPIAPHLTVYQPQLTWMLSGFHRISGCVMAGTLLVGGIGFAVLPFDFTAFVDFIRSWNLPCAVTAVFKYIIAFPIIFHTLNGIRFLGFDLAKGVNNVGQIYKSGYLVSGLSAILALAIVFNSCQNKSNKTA
T1 sequence (O62215 32-145): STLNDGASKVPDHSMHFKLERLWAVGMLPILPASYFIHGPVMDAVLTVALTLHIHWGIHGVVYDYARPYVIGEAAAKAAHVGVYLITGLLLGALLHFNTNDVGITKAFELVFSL
T1 sequence (Q09508 32-646 partner): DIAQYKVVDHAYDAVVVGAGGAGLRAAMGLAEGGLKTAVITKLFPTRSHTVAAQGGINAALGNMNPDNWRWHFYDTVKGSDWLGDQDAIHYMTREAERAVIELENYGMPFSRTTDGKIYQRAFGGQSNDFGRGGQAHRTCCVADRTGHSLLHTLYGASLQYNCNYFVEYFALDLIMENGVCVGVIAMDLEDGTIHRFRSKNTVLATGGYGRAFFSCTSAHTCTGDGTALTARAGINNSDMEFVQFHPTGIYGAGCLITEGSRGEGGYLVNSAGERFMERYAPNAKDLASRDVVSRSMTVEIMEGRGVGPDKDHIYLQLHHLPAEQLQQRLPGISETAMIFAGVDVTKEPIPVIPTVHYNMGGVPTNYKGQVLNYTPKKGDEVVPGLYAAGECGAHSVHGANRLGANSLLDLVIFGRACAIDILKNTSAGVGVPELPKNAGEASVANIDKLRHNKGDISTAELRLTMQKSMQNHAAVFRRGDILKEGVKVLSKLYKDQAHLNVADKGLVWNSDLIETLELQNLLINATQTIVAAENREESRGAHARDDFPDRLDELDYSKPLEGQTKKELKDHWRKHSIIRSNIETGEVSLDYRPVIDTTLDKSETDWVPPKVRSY
T2 sequence (P21913 31-282): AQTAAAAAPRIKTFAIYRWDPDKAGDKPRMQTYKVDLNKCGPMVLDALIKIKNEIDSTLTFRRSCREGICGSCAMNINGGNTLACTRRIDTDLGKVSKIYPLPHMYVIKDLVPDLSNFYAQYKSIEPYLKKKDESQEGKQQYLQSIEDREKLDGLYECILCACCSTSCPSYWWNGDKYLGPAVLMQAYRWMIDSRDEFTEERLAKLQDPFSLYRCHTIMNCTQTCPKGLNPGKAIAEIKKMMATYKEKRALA
T2 sequence (Q641Z9 30-169): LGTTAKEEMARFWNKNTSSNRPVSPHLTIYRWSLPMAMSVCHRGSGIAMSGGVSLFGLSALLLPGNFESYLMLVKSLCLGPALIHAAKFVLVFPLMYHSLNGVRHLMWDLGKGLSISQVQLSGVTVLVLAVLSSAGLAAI
T2 sequence (Q6PCT8 57-159): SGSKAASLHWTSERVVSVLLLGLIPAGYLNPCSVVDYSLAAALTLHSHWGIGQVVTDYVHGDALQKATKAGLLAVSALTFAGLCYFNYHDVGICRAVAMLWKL
T2 sequence (Q920L2 35-656 partner): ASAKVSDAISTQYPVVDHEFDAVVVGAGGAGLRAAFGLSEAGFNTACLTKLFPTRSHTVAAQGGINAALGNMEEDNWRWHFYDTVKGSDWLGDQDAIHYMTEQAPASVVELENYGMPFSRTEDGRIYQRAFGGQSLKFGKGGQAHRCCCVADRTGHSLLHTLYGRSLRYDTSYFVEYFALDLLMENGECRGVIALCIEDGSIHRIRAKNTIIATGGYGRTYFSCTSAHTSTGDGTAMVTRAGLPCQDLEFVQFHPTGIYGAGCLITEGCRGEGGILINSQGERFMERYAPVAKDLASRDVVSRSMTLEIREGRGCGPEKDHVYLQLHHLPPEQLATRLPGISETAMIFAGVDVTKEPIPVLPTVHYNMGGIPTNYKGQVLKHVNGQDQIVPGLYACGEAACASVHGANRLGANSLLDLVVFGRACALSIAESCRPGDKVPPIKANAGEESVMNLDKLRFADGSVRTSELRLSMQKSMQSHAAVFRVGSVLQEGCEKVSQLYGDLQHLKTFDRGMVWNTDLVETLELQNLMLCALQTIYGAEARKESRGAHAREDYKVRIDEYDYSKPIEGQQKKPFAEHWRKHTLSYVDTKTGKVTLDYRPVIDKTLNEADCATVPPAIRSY

Row | SMILES | pIC50 [1] | pIC50 [2] | pIC50 [3]
1 | COc1[nH]c(=O)c(C(=O)[C@@H](C)C[C@H](C)[C@@H](Cl)CCl)c(O)c1OC [Atpenin A5] | 7.7 | 8.2 | 8.1
2 | O=C(NCCc1ncc(C(F)(F)F)cc1Cl)c1ccccc1C(F)(F)F [fluopyram] | 8.5 | – | –
3 | CC(C)Oc1cccc(NC(=O)c2ccccc2C(F)(F)F)c1 [flutolanil] | 6.5 | – | 6.0
